# Measurements from ChEMBL document CHEMBL1201862, “PubChem BioAssay data set” (2004).
#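 These data come from cells grown in 96-well plates and exposed to compound for 48 hours at five concentrations. GI50 marks 50% less growth.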 Calls of active or inactive are those of the source. No stated cut-off is given here; in the data, active = GI50 up to about 1.1 µM and inactive = higher.
# What was measured:
# Assay in all cases: NCI tumour cell line growth inhibition, 48 h
# EKVX = system: EKVX
# MDA-MB-231 = system: MDA-MB-231
# SF-295 = system: SF-295
# MDA-MB-435 = system: MDA-MB-435
# MOLT-4 = system: MOLT-4
# SN12C = system: SN12C
# M14 = system: M14
# TK-10 = system: TK-10
# SR = system: SR
# NCI/ADR-RES = system: NCI/ADR-RES
# T47D = system: T47D
# NCI-H23 = system: NCI-H23
# HT-29 = system: HT-29
# IGROV-1 = system: IGROV-1
# U-251 = system: U-251
# HCC 2998 = system: HCC 2998
# OVCAR-5 = system: OVCAR-5
# HCT-116 = system: HCT-116
# HL-60 = system: HL-60
# CCRF-CEM = system: CCRF-CEM
Structure (SMILES),GI50 (EKVX),GI50 (MDA-MB-231),GI50 (SF-295),GI50 (MDA-MB-435),GI50 (MOLT-4),GI50 (SN12C),GI50 (M14),GI50 (TK-10),GI50 (SR),GI50 (NCI/ADR-RES),GI50 (T47D),GI50 (NCI-H23),GI50 (HT-29),GI50 (IGROV-1),GI50 (U-251),GI50 (HCC 2998),GI50 (OVCAR-5),GI50 (HCT-116),GI50 (HL-60),GI50 (CCRF-CEM)
O=C1c2ccccc2C(=O)c2c(Nc3ccc4c5c(cccc35)C(=O)c3ccccc3-4)cccc21,> 100 µM (inactive),> 100 µM (inactive),> 100 µM (inactive),> 100 µM (inactive),> 100 µM (inactive),> 100 µM (inactive),> 100 µM (inactive),> 100 µM (inactive),> 100 µM (inactive),> 100 µM (inactive),> 100 µM (inactive),> 100 µM (inactive),> 100 µM (inactive),71.1 µM (inactive),> 100 µM (inactive),> 100 µM (inactive),> 100 µM (inactive),> 100 µM (inactive),,
Cc1ncc([N+](=O)[O-])n1CCN=[N+]=[N-],> 100 µM (inactive),> 100 µM (inactive),> 100 µM (inactive),> 100 µM (inactive),,> 100 µM (inactive),> 100 µM (inactive),> 100 µM (inactive),> 100 µM (inactive),> 100 µM (inactive),> 100 µM (inactive),> 100 µM (inactive),> 100 µM (inactive),> 100 µM (inactive),> 100 µM (inactive),,> 100 µM (inactive),> 100 µM (inactive),,
COc1cc([C@H]2CC(=O)C[C@H](c3cc(OC)c(OC)c(OC)c3)C23C(=O)c2ccccc2C3=O)cc(OC)c1OC,> 100 µM (inactive),56.9 µM (inactive),47.1 µM (inactive),> 100 µM (inactive),29.1 µM (inactive),> 100 µM (inactive),> 100 µM (inactive),> 100 µM (inactive),> 100 µM (inactive),> 100 µM (inactive),> 100 µM (inactive),> 100 µM (inactive),> 100 µM (inactive),> 100 µM (inactive),41.3 µM (inactive),> 100 µM (inactive),> 100 µM (inactive),19.8 µM (inactive),,
O=C(Cc1csc(N/N=C2\C(=O)Nc3ccccc32)n1)Nc1ccccc1,19.9 µM (inactive),28.8 µM (inactive),28.9 µM (inactive),39.5 µM (inactive),42.5 µM (inactive),36.6 µM (inactive),38.3 µM (inactive),44.1 µM (inactive),,20 µM (inactive),28.4 µM (inactive),38.9 µM (inactive),27 µM (inactive),11.9 µM (inactive),22.6 µM (inactive),31.6 µM (inactive),> 100 µM (inactive),21.4 µM (inactive),37.1 µM (inactive),
O=C(NNC(=O)c1ccccc1Cl)c1ccccc1O,16.3 µM (inactive),> 100 µM (inactive),32.7 µM (inactive),67 µM (inactive),57.1 µM (inactive),> 100 µM (inactive),39.7 µM (inactive),> 100 µM (inactive),29.9 µM (inactive),20.3 µM (inactive),> 100 µM (inactive),,23.8 µM (inactive),3.84 µM (inactive),> 100 µM (inactive),,> 100 µM (inactive),35.8 µM (inactive),,44.1 µM (inactive)
O=C1c2c(Br)sc(Br)c2C(NC(=O)C(F)(F)F)C1O (stereo unspecified),19.5 µM (inactive),19.2 µM (inactive),18.7 µM (inactive),23.5 µM (inactive),31.3 µM (inactive),18.7 µM (inactive),20.6 µM (inactive),> 100 µM (inactive),,29.1 µM (inactive),24.4 µM (inactive),22.6 µM (inactive),24.7 µM (inactive),20.2 µM (inactive),19.5 µM (inactive),18.2 µM (inactive),19.7 µM (inactive),18.1 µM (inactive),8.39 µM (inactive),26.3 µM (inactive)
C=Cn1c([N+](=O)[O-])cnc1/C=C/c1ccc(C(=O)OCCN2CCOCC2)cc1,> 100 µM (inactive),> 100 µM (inactive),> 100 µM (inactive),> 100 µM (inactive),38 µM (inactive),> 100 µM (inactive),> 100 µM (inactive),> 100 µM (inactive),,> 100 µM (inactive),> 100 µM (inactive),> 100 µM (inactive),> 100 µM (inactive),> 100 µM (inactive),> 100 µM (inactive),,> 100 µM (inactive),> 100 µM (inactive),,> 100 µM (inactive)
CCOC(=O)c1c(-c2ccccc2)c(OC)cn1C,> 10 µM (inactive),> 10 µM (inactive),> 10 µM (inactive),> 10 µM (inactive),> 10 µM (inactive),> 10 µM (inactive),> 10 µM (inactive),> 10 µM (inactive),,> 10 µM (inactive),> 10 µM (inactive),> 10 µM (inactive),> 10 µM (inactive),> 10 µM (inactive),> 10 µM (inactive),> 10 µM (inactive),> 10 µM (inactive),> 10 µM (inactive),> 10 µM (inactive),> 10 µM (inactive)
O=C1Nc2ccc(Cl)cc2C(=O)N2CCC[C@@H]12,> 100 µM (inactive),> 100 µM (inactive),> 100 µM (inactive),> 100 µM (inactive),> 100 µM (inactive),> 100 µM (inactive),> 100 µM (inactive),> 100 µM (inactive),> 100 µM (inactive),> 100 µM (inactive),> 100 µM (inactive),> 100 µM (inactive),> 100 µM (inactive),> 100 µM (inactive),> 100 µM (inactive),> 100 µM (inactive),> 100 µM (inactive),> 100 µM (inactive),,
CC(C)(C)OC(=O)NC(CSCc1ccc(C(=O)c2ccccc2)cc1)C(=O)N1CCN(CCCCN2c3ccccc3Sc3cc(N=[N+]=[N-])ccc32)CC1 (stereo unspecified),> 100 µM (inactive),> 100 µM (inactive),> 100 µM (inactive),> 100 µM (inactive),> 100 µM (inactive),> 100 µM (inactive),> 100 µM (inactive),> 100 µM (inactive),,> 100 µM (inactive),> 100 µM (inactive),> 100 µM (inactive),> 100 µM (inactive),> 100 µM (inactive),> 100 µM (inactive),> 100 µM (inactive),> 100 µM (inactive),> 100 µM (inactive),> 100 µM (inactive),> 100 µM (inactive)
N#Cc1sc2nc3ccccc3n2c1N,85.1 µM (inactive),76.4 µM (inactive),> 100 µM (inactive),> 100 µM (inactive),31.4 µM (inactive),,> 100 µM (inactive),14.9 µM (inactive),,> 100 µM (inactive),89.7 µM (inactive),52.5 µM (inactive),75 µM (inactive),58.7 µM (inactive),83.9 µM (inactive),36.2 µM (inactive),> 100 µM (inactive),> 100 µM (inactive),,29.3 µM (inactive)
C=C1C(=O)O[C@@H]2[C@H]1C[C@@H](O)[C@H](C)[C@@](O)(C(=O)/C=C/C)[C@H]2OC(=O)C(C)CC (stereo partly specified),8.57 µM (inactive),5.79 µM (inactive),37.5 µM (inactive),3.29 µM (inactive),2.44 µM (inactive),2.64 µM (inactive),3.3 µM (inactive),3.37 µM (inactive),,11 µM (inactive),5.7 µM (inactive),5.31 µM (inactive),2.24 µM (inactive),2.58 µM (inactive),11.2 µM (inactive),14.5 µM (inactive),5.47 µM (inactive),1.84 µM (inactive),,0.0428 µM (active)
COC(=O)[C@]1(c2cc3ccccc3[nH]2)CC2CN(C(=O)OCc3ccccc3)C1C=C2OC (stereo partly specified),36.5 µM (inactive),19.9 µM (inactive),27.2 µM (inactive),20.7 µM (inactive),22.2 µM (inactive),36.1 µM (inactive),20.8 µM (inactive),48.1 µM (inactive),,38.3 µM (inactive),35.8 µM (inactive),40.7 µM (inactive),25.7 µM (inactive),42.7 µM (inactive),26.6 µM (inactive),21.5 µM (inactive),21.3 µM (inactive),28.8 µM (inactive),22.8 µM (inactive),24.8 µM (inactive)
COc1ccc(-c2nnc3nc4ccccc4n3c2O)cc1,> 100 µM (inactive),31 µM (inactive),10 µM (inactive),> 100 µM (inactive),> 100 µM (inactive),> 100 µM (inactive),> 100 µM (inactive),> 100 µM (inactive),,> 100 µM (inactive),> 100 µM (inactive),> 100 µM (inactive),> 100 µM (inactive),> 100 µM (inactive),90.2 µM (inactive),> 100 µM (inactive),> 100 µM (inactive),> 100 µM (inactive),> 100 µM (inactive),> 100 µM (inactive)
Cn1ccc2c(c1=O)C(=O)OC2(C)C [CERPEGIN],> 100 µM (inactive),> 100 µM (inactive),> 100 µM (inactive),,> 100 µM (inactive),> 100 µM (inactive),> 100 µM (inactive),> 100 µM (inactive),> 100 µM (inactive),> 100 µM (inactive),> 100 µM (inactive),> 100 µM (inactive),> 100 µM (inactive),> 100 µM (inactive),> 100 µM (inactive),> 100 µM (inactive),> 100 µM (inactive),> 100 µM (inactive),> 100 µM (inactive),> 100 µM (inactive)
